From ChEMBL document CHEMBL5442168, “ASAP - In vitro liver microsomal stability” (2024)
Several values for one entry are separate records, joined by “and”; a condition that tells them apart may be missing. Identical values can stand only once.

How the values were obtained:
[1] = (§1) Mouse liver microsomal stability of compound in microsomal protein, PBS buffer pH 7.4, NADPH, glucose-6-phosphate and glucose-6-phosphate dehydrogenase media. Aliquotes were taken at 5 time points and after stopping the reaction, supernatants were analyzed using HPLC coupled with a tandem mass spectrometer. The elimination constant, half-life, and intrinsic clearance are determined as results using linear regression analysis. The assay has been performed by Enamine biological services, Bienta Ltd.The protocol is publicly available: dx.doi.org/10.17504/protocols.io.5qpvokdb9l4o/v1; assay type: ADME, microsomes, Microsome; conditions: for half-life / microsomal CLint: liver microsomes; for CLint / Remaining (without cofactor) / T1/2 / Remaining: microsomes
[2] = as §1, with “Human” for “Mouse”; assay type: ADME, microsomes, Microsome; conditions: for half-life / microsomal CLint: liver microsomes; for CLint / Remaining / Remaining (without cofactor) / T1/2: microsomes
Throughout, for Remaining (without cofactor): time not given here.
Throughout, for Remaining: time not given here.

Row | Structure (SMILES) | half-life [1] [min] | microsomal CLint [1] [µL/min/mg] | CLint [1] | Remaining (without cofactor) [1] | T1/2 [1] | half-life [2] [min] | microsomal CLint [2] [µL/min/mg] | CLint [2] | Remaining [2] | Remaining (without cofactor) [2] | T1/2 [2] | Remaining [1]
1 | CNC(=O)c1c[nH]c2ncnc(N[C@@H](c3ccc4c(c3)S(=O)(=O)CCC4)C(C)C)c12 | 8.7 | 192 | 113 µL/min/mg | 92% and 108% | 14.7 min | 12.8 | 131 | 108 µL/min/mg | 11% and 17% | 104% and 94% | 15.4 min | –
2 | CC(C)[C@@H](Nc1ncnc2[nH]c(-c3cnn(C)c3)cc12)c1ccc2c(c1)S(=O)(=O)CCC2 | 10.8 | 155 | 140 µL/min/mg | 102% | 11.9 min | – | – | 141 µL/min/mg and 405 µL/min/mg | 10% and 0% | 102% and 105% | 11.9 min and 4.1 min | 7% and 10%
3 | CC(C)[C@@H](Nc1ncnc(N)c1Cl)c1ccc2c(c1)S(=O)(=O)CCC2 | 8.2 | 204 | – | 102% | – | 21 | 79 | – | 27% | 101% | – | 4%
4 | COc1ccc([C@@H](Cc2nnn[nH]2)NC(=O)c2ncnc3[nH]ccc23)cc1 | 4400 | – | – | 93% | – | 314 | 5 | – | 86% | 110% | – | 96%
5 | CC(C)[C@@H](Nc1ncnc2[nH]ccc12)c1ccc2c(c1)NC(=O)CO2 | 21.4 | 78 | 80 µL/min/mg | 93% and 110% | 20.9 min | 79 | 21 | 31 µL/min/mg | 73% and 56% | 105% and 92% | 54.3 min | 27% and 26%
6 | CC(C)[C@@H](Nc1ncnc2[nH]c(-c3cnn(C)c3C#N)cc12)c1ccc2c(c1)S(=O)(=O)CCC2 | 3.8 | 440 | 709 µL/min/mg | 96% and 106% | 2.4 min | 3.4 | 490 | 516 µL/min/mg | 1% and 0% | 94% and 101% | 3.2 min | 0%
7 | COc1ccc([C@@H](NC(=O)c2[nH]cnc3nccc2-3)C(C)c2nnn[nH]2)cc1 (stereo not given in full) | 2880 | 1 | – | 92% | – | 799 | 2 | – | 92% | 103% | – | 99%
8 | CC(C)[C@@H](Nc1ncnc2[nH]c(-c3cnn(C)c3C#N)cc12)c1ccc2c(n1)NC(=O)CO2 | 11.5 | 145 | 189 µL/min/mg | 92% | 8.8 min | 23.7 | 70 | 51 µL/min/mg | 30% and 43% | 97% and 98% | 32.6 min | 9% and 5%
9 | CC(C)[C@H](Nc1ncnc2[nH]c(-c3cnn(CC(N)=O)c3)cc12)c1ccc2c(c1)OCCO2 | 104 | 16 | – | 104% | – | 35.4 | 47 | – | 43% | 102% | – | 80%
10 | C[C@@H](C(=O)O)[C@@H](NC(=O)c1ncnc2[nH]ccc12)c1ccc(Br)cc1 | 433 | 4 | – | 109% | – | 338 | 5 | – | 103% | 110% | – | 94%
11 | CNC(=O)Cn1cc(-c2cc3c(N[C@H](c4ccc5c(c4)S(=O)(=O)CCC5)C(C)C)ncnc3[nH]2)cn1 | 15 | 111 | – | 96% | – | 18.1 | 92 | – | 23% | 101% | – | 16%
12 | CC(C)[C@H](Nc1ncnc2[nH]c(-c3cnn(CC(N)=O)c3)cc12)c1ccc2c(n1)OCCO2 | 359 | 5 | – | 110% | – | 134 | 12 | – | 85% | 90% | – | 99%

More lines, now with the values ahead:

Row | half-life [1] [min] | microsomal CLint [1] [µL/min/mg] | CLint [1] | Remaining (without cofactor) [1] | T1/2 [1] | half-life [2] [min] | microsomal CLint [2] [µL/min/mg] | CLint [2] | Remaining [2] | Remaining (without cofactor) [2] | T1/2 [2] | Remaining [1] | Structure (SMILES)
13 | 21.6 | 77 | 44 µL/min/mg | 103% and 90% | 37.8 min | – | – | 94 µL/min/mg and 237 µL/min/mg | – | 96% and 89% | 17.7 min and 7 min | 26% and 48% | CNC(=O)Cn1cc(-c2cc3c(N[C@@H](c4ccc5c(c4)S(=O)(=O)CCC5)C(C)C)ncnc3[nH]2)cn1
14 | 39.5 | 42 | – | 102% | – | 320 | 5 | – | 90% | 112% | – | 50% | CC(C)[C@H](Nc1ncnc2[nH]cc(C(=O)NC3CC3)c12)c1ccc2c(c1)S(=O)(=O)CCC2
15 | 156 | 11 | – | 102% | – | 99.2 | 17 | – | 73% | 91% | – | 84% | CC(C)[C@@H](Nc1ncnc2[nH]c(-c3cnn(CC(N)=O)c3)cc12)c1ccc2c(c1)NC(=O)CO2
16 | 145 | 12 | 9 µL/min/mg | 104% and 102% | 182.3 min | 120 | 14 | 18 µL/min/mg | 77% | 95% | 91.8 min | 83% and 90% | CC(C)[C@@H](Nc1ncnc2[nH]c(-c3cnn(CC(N)=O)c3)cc12)c1ccc2c(n1)OCCO2
17 | 7.7 | 218 | 129 µL/min/mg | 97% and 106% | 13 min | 22.6 | 74 | 47 µL/min/mg | 25% and 46% | 111% and 101% | 35.4 min | 3% and 13% | CC(C)[C@@H](Nc1ncnc2[nH]c(-c3cnn(C)c3C#N)cc12)c1ccc2c(c1)OCCO2
18 | 1.9 | 882 | – | 101% | – | 3.7 | 455 | – | 0% | 93% | – | 1% | CNC(=O)c1cccc(-c2cc3c(N[C@@H](c4ccc5c(c4)S(=O)(=O)CCC5)C(C)C)ncnc3[nH]2)c1
19 | 2.2 | 770 | – | 99% | – | 6.5 | 258 | – | 1% | 94% | – | 0% | CNC(=O)c1c[nH]c2ncnc(N[C@H](c3ccc4c(c3)S(=O)(=O)CCC4)C(C)C)c12
20 | 32.2 | 52 | 54 µL/min/mg | 108% and 101% | 30.9 min | – | – | 57 µL/min/mg and 133 µL/min/mg | – | 110% and 95% | 29.4 min and 12.6 min | 41% and 35% | CNCc1cc(-c2cc3c(N[C@@H](c4ccc5c(c4)S(=O)(=O)CCC5)C(C)C)ncnc3[nH]2)co1
21 | 649 | 3 | – | 107% | – | 627 | 3 | – | 98% | 100% | – | 104% | CC(C)[C@H](Nc1ncnc2[nH]c(C(=O)N[C@@H]3CCN(C)C3)cc12)c1ccc2c(c1)S(=O)(=O)CCC2
22 | – | – | 68 µL/min/mg and 31 µL/min/mg | 92% and 102% | 24.6 min and 53.8 min | – | – | 106 µL/min/mg and 297 µL/min/mg | – | 92% and 99% | 15.8 min and 5.6 min | 31% and 59% | CC(C)[C@@H](Nc1ncnc2[nH]c(-c3cnn(CC(=O)N(C)C)c3)cc12)c1ccc2c(c1)S(=O)(=O)CCC2
23 | 8.3 | 202 | – | 104% | – | 6.1 | 273 | – | 1% | 113% | – | 4% | Cc1nn(C)cc1-c1cc2c(N[C@H](c3ccc4c(c3)S(=O)(=O)CCC4)C(C)C)ncnc2[nH]1
24 | 9.8 | 170 | – | 87% | – | 8 | 210 | – | 4% | 97% | – | 6% | CC(C)[C@@H](Nc1ncnc2[nH]c(-c3ccc4cncn4c3)cc12)c1ccc2c(c1)S(=O)(=O)CCC2
25 | 171 | 10 | – | 93% | – | 289 | 6 | – | 119% | 99% | – | 90% | CC(C)[C@H](CO)Nc1ncnc2[nH]ccc12
